# Source: ChEMBL document CHEMBL5050844 (2019)
# Assays:
# [1] = Induction of anti-CD3 antibodies-stimulated human T cell activation at 1 uM assessed fold increase in IL-2 secretion measured by ELISA assay; assay type: functional, T cell line; note: reference of the scale not given here
# [2] = Induction of anti-CD3/CD28 antibodies-stimulated human T cell activation at 0.3 uM assessed fold increase in CD25 expression measured by ELISA assay; assay type: functional, T cell line
# [3] = Induction of anti-CD3/CD28 antibodies-stimulated human T cell activation at 1 uM assessed fold increase in CD25 expression measured by ELISA assay; assay type: functional, T cell line
# [4] = target: E3 ubiquitin-protein ligase CBL-B (Homo sapiens, UniProt Q13191); assay: Inhibition of N-terminal Avi-tagged human CBL-B (36 to 427 residues) incubated with 60 nM Src kinase for 1.5 hrs followed by incubation with fluorescently labeled UbcH5B-Ub for 1 hr and measured by TR-FRET assay; assay type: single protein
# [5] = Induction of anti-CD3/CD28 antibodies-stimulated human T cell activation at 0.3 uM assessed fold increase in IL-2 secretion measured by ELISA assay; assay type: functional, T cell line
# [6] = Induction of anti-CD3 antibodies-stimulated human T cell activation at 1 uM assessed fold increase in CD25 expression measured by ELISA assay; assay type: functional, T cell line; note: reference of the scale not given here
# [7] = Induction of anti-CD3/CD28 antibodies-stimulated human T cell activation at 1 uM assessed fold increase in IL-2 secretion measured by ELISA assay; assay type: functional, T cell line
# Chain of E3 ubiquitin-protein ligase CBL-B (Q13191 whole entry, the tested form may be a part): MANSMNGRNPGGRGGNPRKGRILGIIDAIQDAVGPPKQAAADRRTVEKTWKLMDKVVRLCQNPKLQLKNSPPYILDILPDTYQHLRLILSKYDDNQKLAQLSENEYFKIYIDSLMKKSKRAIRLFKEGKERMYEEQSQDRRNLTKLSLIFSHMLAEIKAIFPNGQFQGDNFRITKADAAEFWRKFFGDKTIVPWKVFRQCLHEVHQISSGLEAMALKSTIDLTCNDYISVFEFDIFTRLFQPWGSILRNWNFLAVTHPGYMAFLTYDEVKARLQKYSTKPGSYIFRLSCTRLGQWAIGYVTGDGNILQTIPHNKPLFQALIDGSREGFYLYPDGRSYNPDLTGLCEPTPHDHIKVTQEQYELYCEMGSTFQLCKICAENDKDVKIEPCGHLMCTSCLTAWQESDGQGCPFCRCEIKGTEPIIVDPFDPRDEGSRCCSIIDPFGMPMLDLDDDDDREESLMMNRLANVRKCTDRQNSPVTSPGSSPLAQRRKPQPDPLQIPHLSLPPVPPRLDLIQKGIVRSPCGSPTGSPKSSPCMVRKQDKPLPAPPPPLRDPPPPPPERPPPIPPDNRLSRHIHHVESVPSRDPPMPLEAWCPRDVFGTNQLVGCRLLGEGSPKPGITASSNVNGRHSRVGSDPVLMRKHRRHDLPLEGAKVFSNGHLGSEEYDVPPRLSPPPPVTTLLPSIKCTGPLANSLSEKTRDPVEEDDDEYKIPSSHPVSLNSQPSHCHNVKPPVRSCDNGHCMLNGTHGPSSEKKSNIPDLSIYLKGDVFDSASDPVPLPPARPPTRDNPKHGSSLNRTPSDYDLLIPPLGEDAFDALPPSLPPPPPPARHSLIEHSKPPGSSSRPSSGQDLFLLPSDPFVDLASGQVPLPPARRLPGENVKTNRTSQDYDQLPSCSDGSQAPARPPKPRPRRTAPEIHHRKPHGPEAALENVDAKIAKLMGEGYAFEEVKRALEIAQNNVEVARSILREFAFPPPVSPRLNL
Structure (SMILES),IC50 [4] [nM],fold change (FC) [1],fold change (FC) [2],fold change (FC) [3],fold change (FC) [5],fold change (FC) [6],fold change (FC) [7]
CN1C2CCC1CN(c1cc3c(c(C(F)(F)F)c1)CN(c1cccc([C@@](C)(F)C(F)(F)c4nncn4C)c1)C3=O)C2,< 100,0.101,1.01,1.31,1.01,0.801,2.51
"C[C@H](c1cc2c(c(C(F)(F)F)c1)CN(c1cccc(C3([C@H](F)c4nncn4C)COC3)c1)C2=O)N1CCC2(CC2)C1 (single isomer, unassigned)",< 100,>=0.201,>=1.76,>=1.76,>=7.5,>=1.001,>=7.5
Cc1cc(C(=O)Nc2cccc(C3([C@H](F)c4nncn4C)COC3)c2)nc(C2CC2)n1,< 100,0.151,1.01,1.01,2.51,>=1.001,5
Cn1cnnc1CC1(c2cccc(N3Cc4c(cc(CN5CCC(F)(F)CC5)cc4C(F)(F)F)C3=O)c2)COC1,< 100,>=0.201,1.31,1.31,>=7.5,>=1.001,>=7.5
Cn1cnnc1CC1(c2cccc(N3Cc4c(cc(N5CC6(C5)CC(F)(F)C6)cc4C(F)(F)F)C3=O)c2)COC1,< 100,0.101,1.01,1.31,5,>=1.001,>=7.5
"CN1CC2CC1CN2c1cc2c(c(C(F)(F)F)c1)CN(c1cccc([C@@](C)(F)C(F)(F)c3nncn3C)c1)C2=O (single isomer, unassigned; 563)",< 100,0.051,1.01,1.31,1.01,0.801,2.51
CCOc1cc(N2Cc3c(cc([C@@H](C)N4CC[C@H](F)C4)cc3C(F)(F)F)C2=O)cc(C2(Cc3nncn3C)COC2)c1,< 100,>=0.201,1.31,1.51,>=7.5,>=1.001,>=7.5
Cc1cc(C(=O)Nc2cccc(C(C)(C)Cc3nncn3C)c2)nc(C2CC2)n1,< 100,0.101,1.31,1.31,5,0.801,>=7.5
Cn1cnnc1CC1(c2cccc(NC(=O)c3cc(CN4CC[C@H](F)C4)nc(C4CC4)n3)c2)COC1,< 100,>=0.201,1.51,1.51,>=7.5,>=1.001,>=7.5
C[C@H]1CN(C)CCN1c1cc2c(c(C(F)(F)F)c1)CN(c1cccc(C3(Cc4nncn4C)COC3)c1)C2=O,< 100,>=0.201,1.01,1.31,5,>=1.001,>=7.5
C[C@H](c1cc2c(c(C(F)(F)F)c1)CN(c1cccc(C3(Cc4nncn4C)COC3)c1)C2=O)N1CC(C)(F)C1,< 100,>=0.201,1.51,1.51,5,>=1.001,>=7.5
C[C@H]1CN(Cc2cc3c(c(C(F)(F)F)c2)CN(c2cccc(C4(Cc5nncn5C)COC4)c2)C3=O)CCO1,< 100,>=0.201,1.31,1.31,5,0.601,>=7.5

# Continued, in another order:
IC50 [4] [nM],Structure (SMILES),fold change (FC) [1],fold change (FC) [2],fold change (FC) [3],fold change (FC) [5],fold change (FC) [6],fold change (FC) [7]
< 100,CN1CC2CCC1CN2c1cc2c(c(C(F)(F)F)c1)CN(c1cccc(C3(Cc4nncn4C)COC3)c1)C2=O (centres undefined),>=0.201,1.01,1.31,2.51,0.801,5
< 100,Cn1cnnc1CC1(c2cccc(NC(=O)c3cc(CN4CCCCC4)nc(C4CC4)n3)c2)COC1,>=0.201,>=1.76,>=1.76,>=7.5,>=1.001,>=7.5
< 100,CN1CC2CCC1CN2c1cc2c(c(C(F)(F)F)c1)CN(c1cccc([C@@](C)(F)C(F)(F)c3nncn3C)c1)C2=O (some centres undefined),0.101,1.31,1.31,1.01,>=1.001,2.51
< 100,CN1CCN(c2cc3c(c(C(F)(F)F)c2)CN(c2cccc(C4(Cc5nncn5C)COC4)c2)C3=O)C(=O)C1,0.051,1.01,1.01,1.01,0.801,1.01
< 100,Cc1conc1CC1(c2cccc(NC(=O)c3cc(CN4CCC5(CC5)C4)cc(C4CC4)n3)c2)COC1,>=0.201,1.31,1.31,>=7.5,>=1.001,>=7.5
< 100,Cn1cnnc1CC1(c2cccc(NC(=O)c3cc(CN4CC[C@H](F)C4)nc(C(F)(F)F)n3)c2)COC1,0.051,1.01,1.01,1.01,0.801,2.51
< 100,CC(c1cc2c(c(C3CC3)n1)CN(c1cccc(C3(Cc4nncn4C)COC3)c1)C2=O)N1CC2(CC2)C1 (centres undefined),<=0.05,1.01,1.01,1.01,0.601,2.51
< 100,CC(c1cc2c(c(C3CC3)n1)CN(c1cccc(C3(Cc4nncn4C)COC3)c1)C2=O)N1CCCC1 (centres undefined),<=0.05,1.01,1.01,1.01,0.601,2.51
< 100,CN1CC[C@@H](O)[C@H](Cc2cc3c(c(C(F)(F)F)c2)CN(c2cccc(C4(Cc5nncn5C)COC4)c2)C3=O)C1 (relative stereo),0.101,1.01,1.01,1.01,0.801,2.51
< 100,Cc1cc(C(=O)Nc2cccc(C3(Cc4nncn4C)CCC3)c2)nc(C2CC2)n1,0.051,1.31,1.31,>=7.5,>=1.001,>=7.5
